In ChEMBL document CHEMBL1201862, “PubChem BioAssay data set” (2004):
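Five concentrations, 48 hours, 96-well plates. GI50 is the concentration that inhibits growth by half.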 Activity calls are given as the source filed them. No stated cut-off is given here; in the data, active = GI50 up to about 1.1 µM and inactive = higher.

Tests used:
Assay in all cases: inhibition of tumour cell growth, NCI panel, 48 h
A498 = tested on: A498
DLD-1 = tested on: DLD-1
DMS-273 = tested on: DMS-273
HCT-15 = tested on: HCT-15
HOP-62 = tested on: HOP-62
HT-29 = tested on: HT-29
M14 = tested on: M14
NCI-H23 = tested on: NCI-H23
NCI-H460 = tested on: NCI-H460
OVCAR-4 = tested on: OVCAR-4
OVCAR-8 = tested on: OVCAR-8
RPMI-8226 = tested on: RPMI-8226
SF-295 = tested on: SF-295
SK-MEL-2 = tested on: SK-MEL-2
SN12C = tested on: SN12C
SNB-19 = tested on: SNB-19
U-251 = tested on: U-251
NCI-H522 = tested on: NCI-H522

| SMILES | GI50 (A498) | GI50 (DLD-1) | GI50 (DMS-273) | GI50 (HCT-15) | GI50 (HOP-62) | GI50 (HT-29) | GI50 (M14) | GI50 (NCI-H23) | GI50 (NCI-H460) | GI50 (OVCAR-4) | GI50 (OVCAR-8) | GI50 (RPMI-8226) | GI50 (SF-295) | GI50 (SK-MEL-2) | GI50 (SN12C) | GI50 (SNB-19) | GI50 (U-251) | GI50 (NCI-H522) |
| --- | --- | --- | --- | --- | --- | --- | --- | --- | --- | --- | --- | --- | --- | --- | --- | --- | --- | --- |
| O=S(=O)(O)C(F)(F)C(F)(F)C(F)(F)C(F)(F)F | 43.7 µM (inactive) | > 100 µM (inactive) | > 100 µM (inactive) | > 100 µM | > 100 µM (inactive) | > 100 µM (inactive) | > 100 µM (inactive) | > 100 µM (inactive) | > 100 µM (inactive) | > 100 µM (inactive) | > 100 µM (inactive) | > 100 µM (inactive) | > 100 µM (inactive) | > 100 µM (inactive) | > 100 µM (inactive) | > 100 µM (inactive) | > 100 µM (inactive) |  |
| COC(=O)CC1NC(=O)C1C(C)(OC)OC (centres undefined) | > 100 µM (inactive) | > 100 µM (inactive) | > 100 µM (inactive) | > 100 µM | > 100 µM (inactive) | > 100 µM (inactive) | > 100 µM (inactive) | > 100 µM (inactive) | > 100 µM (inactive) | > 100 µM (inactive) | > 100 µM (inactive) | > 100 µM (inactive) | > 100 µM (inactive) | > 100 µM (inactive) | > 100 µM (inactive) | > 100 µM (inactive) | > 100 µM (inactive) |  |
| CCOC(=O)NC(=O)c1cn(CCCCCCCCCCC(=O)N2CCN(CCn3cc(C(=O)NC(=O)OCC)c(=O)[nH]c3=O)CC2)c(=O)[nH]c1=O | > 100 µM (inactive) | > 100 µM (inactive) | > 100 µM (inactive) | > 100 µM | > 100 µM (inactive) | > 100 µM (inactive) | > 100 µM (inactive) | > 100 µM (inactive) | > 100 µM (inactive) | > 100 µM (inactive) | > 100 µM (inactive) | > 100 µM (inactive) | > 100 µM (inactive) |  | > 100 µM (inactive) | > 100 µM (inactive) | > 100 µM (inactive) |  |
| CC(=O)O/N=C/c1ncccc1OC(C)=O | > 100 µM (inactive) | > 100 µM (inactive) | > 100 µM (inactive) | > 100 µM | > 100 µM (inactive) | > 100 µM (inactive) | > 100 µM (inactive) | > 100 µM (inactive) | > 100 µM (inactive) | > 100 µM (inactive) | > 100 µM (inactive) |  | > 100 µM (inactive) | > 100 µM (inactive) | > 100 µM (inactive) | > 100 µM (inactive) | > 100 µM (inactive) | > 100 µM (inactive) |
| COC1OC2COC(c3ccccc3)OC2C(O)C1Br (centres undefined) | > 100 µM (inactive) | > 100 µM (inactive) | > 100 µM (inactive) | > 100 µM | > 100 µM (inactive) | > 100 µM (inactive) | > 100 µM (inactive) | > 100 µM (inactive) | > 100 µM (inactive) | > 100 µM (inactive) | > 100 µM (inactive) | > 100 µM (inactive) | > 100 µM (inactive) |  | > 100 µM (inactive) | > 100 µM (inactive) | > 100 µM (inactive) | > 100 µM (inactive) |
| NCCCNC(=O)c1csc(NC(=O)c2csc(NC(=O)CCCN)n2)n1 | > 100 µM (inactive) | > 100 µM (inactive) | > 100 µM (inactive) | > 100 µM | > 100 µM (inactive) | > 100 µM (inactive) | > 100 µM (inactive) | > 100 µM (inactive) | > 100 µM (inactive) | 18.7 µM (inactive) | > 100 µM (inactive) | > 100 µM (inactive) | > 100 µM (inactive) | > 100 µM (inactive) | > 100 µM (inactive) |  | > 100 µM (inactive) | > 100 µM (inactive) |
| O=C1c2ccccc2C(=O)N1C/C=C/CO | > 100 µM (inactive) | > 100 µM (inactive) | > 100 µM (inactive) | > 100 µM | > 100 µM (inactive) |  | > 100 µM (inactive) |  | > 100 µM (inactive) | > 100 µM (inactive) | > 100 µM (inactive) | > 100 µM (inactive) |  | > 100 µM (inactive) | > 100 µM (inactive) | > 100 µM (inactive) | > 100 µM (inactive) | 98.2 µM (inactive) |
| CCOC(=O)CNC(=O)OCc1ccccc1 | > 100 µM (inactive) | > 100 µM (inactive) | > 100 µM (inactive) | > 100 µM | > 100 µM (inactive) | > 100 µM (inactive) | > 100 µM (inactive) | > 100 µM (inactive) | > 100 µM (inactive) |  | > 100 µM (inactive) |  | > 100 µM (inactive) | > 100 µM (inactive) | > 100 µM (inactive) | > 100 µM (inactive) | > 100 µM (inactive) | > 100 µM (inactive) |
| C1=CC=C2NCCC/N=C3/C=CC=CC=C3NCCC/N=C\2C=C1 | > 100 µM (inactive) | > 100 µM (inactive) | > 100 µM (inactive) | > 100 µM | > 100 µM (inactive) | > 100 µM (inactive) | > 100 µM (inactive) |  | > 100 µM (inactive) | > 100 µM (inactive) | > 100 µM (inactive) | > 100 µM (inactive) | > 100 µM (inactive) | > 100 µM (inactive) | > 100 µM (inactive) | > 100 µM (inactive) | > 100 µM (inactive) |  |
| COc1cc(/C=C2\[C@H]3c4c(c(OC)c(C)c(OC)c4OC)CC(C(=O)N2Cc2ccccc2)N3C)c(OC)c(C)c1OC | 27 µM (inactive) | 47.5 µM (inactive) | 15.5 µM (inactive) |  | 19.5 µM (inactive) | 19.1 µM (inactive) | 18.1 µM (inactive) | 34.3 µM (inactive) | 16.6 µM (inactive) | 16.1 µM (inactive) | 38.5 µM (inactive) | 20.6 µM (inactive) | 19.8 µM (inactive) | > 10 µM (inactive) | 17.9 µM (inactive) | 27.2 µM (inactive) | 19.5 µM (inactive) | 13.1 µM (inactive) |
| COC(=O)[C@@H]1C(=O)O[C@@H](c2ccc(OC)c(OC)c2OC)[C@@H]1C(=O)OC.COC(=O)[C@H]1C(=O)O[C@@H](c2ccc(OC)c(OC)c2OC)[C@@H]1C(=O)OC | > 100 µM (inactive) | > 100 µM (inactive) | > 100 µM (inactive) | > 100 µM | > 100 µM (inactive) | > 100 µM (inactive) | > 100 µM (inactive) | > 100 µM (inactive) | > 100 µM (inactive) | > 100 µM (inactive) | > 100 µM (inactive) | > 100 µM (inactive) | > 100 µM (inactive) |  | > 100 µM (inactive) | > 100 µM (inactive) | > 100 µM (inactive) | > 100 µM (inactive) |
| O=C(O)CCCNS(=O)(=O)c1ccccc1 | > 100 µM (inactive) | > 100 µM (inactive) | > 100 µM (inactive) | > 100 µM |  | > 100 µM (inactive) | > 100 µM (inactive) | > 100 µM (inactive) | > 100 µM (inactive) | > 100 µM (inactive) | > 100 µM (inactive) | > 100 µM (inactive) | > 100 µM (inactive) | > 100 µM (inactive) | > 100 µM (inactive) | > 100 µM (inactive) | > 100 µM (inactive) | > 100 µM (inactive) |
